ChEMBL document CHEMBL4138123, “Design, synthesis and biological evaluation of novel pyrazolochalcones as potential modulators of PI3K/Akt/mTOR pathway and inducers of apoptosis in breast cancer cells” (Eur J Med Chem, 2017)

Legend:
Format in all cases: functional
HCT-116 = test: Cytotoxicity against human HCT116 cells assessed as growth inhibition after 48 hrs by sulforhodamine B assay; conditions: HCT-116, 48 h
SF-539 = test: Cytotoxicity against human SF539 cells assessed as cell growth at 0.01 uM after 48 hrs by sulforhodamine B assay relative to control; conditions: SF-539, 48 h, read-out: Activity
NCI-H23 = test: Cytotoxicity against human NCI-H23 cells assessed as cell growth at 1 uM after 48 hrs by sulforhodamine B assay relative to control; conditions: NCI-H23, 48 h, read-out: Activity
SK-OV-3 = test: Cytotoxicity against human SKOV3 cells assessed as cell growth at 0.01 uM after 48 hrs by sulforhodamine B assay relative to control; conditions: SK-OV-3, 48 h, read-out: Activity
NCI-H226 = test: Cytotoxicity against human NCI-H226 cells assessed as cell growth at 0.1 uM after 48 hrs by sulforhodamine B assay relative to control; conditions: NCI-H226, 48 h, read-out: Activity
HL-60(TB) = test: Cytotoxicity against human HL-60(TB) cells assessed as cell growth at 0.1 uM after 48 hrs by sulforhodamine B assay relative to control; conditions: HL-60, 48 h, read-out: Activity
UO-31 [1] = test: Cytotoxicity against human UO31 cells assessed as growth inhibition after 48 hrs by sulforhodamine B assay; conditions: UO-31, 48 h
HOP-62 [2] = test: Cytotoxicity against human HOP62 cells assessed as cell growth at 10 uM after 48 hrs by sulforhodamine B assay relative to control; conditions: HOP-62, 48 h, read-out: Activity
IGROV-1 [3] = test: Cytotoxicity against human IGROV1 cells assessed as cell growth at 100 uM after 48 hrs by sulforhodamine B assay relative to control; conditions: IGROV-1, 48 h, read-out: Activity
RPMI-8226 [4] = test: Cytotoxicity against human RPMI8226 cells assessed as cell growth at 1 uM after 48 hrs by sulforhodamine B assay relative to control; conditions: RPMI-8226, 48 h, read-out: Activity
SW-620 = test: Cytotoxicity against human SW620 cells assessed as growth inhibition after 48 hrs by sulforhodamine B assay; conditions: SW-620, 48 h
MOLT-4 = test: Cytotoxicity against human MOLT4 cells assessed as cell growth at 0.1 uM after 48 hrs by sulforhodamine B assay relative to control; conditions: MOLT-4, 48 h, read-out: Activity
Malme-3M = test: Cytotoxicity against human MALME-3M cells assessed as cell growth at 10 uM after 48 hrs by sulforhodamine B assay relative to control; conditions: read-out: Activity
KM12 = test: Cytotoxicity against human KM12 cells assessed as cell growth at 0.1 uM after 48 hrs by sulforhodamine B assay relative to control; conditions: KM12, 48 h, read-out: Activity
U-251 = test: Cytotoxicity against human U251 cells assessed as cell growth at 0.1 uM after 48 hrs by sulforhodamine B assay relative to control; conditions: U-251, 48 h, read-out: Activity
NCI-H322M = test: Cytotoxicity against human NCI-H322M cells assessed as cell growth at 0.01 uM after 48 hrs by sulforhodamine B assay relative to control; conditions: read-out: Activity
BT-549 = test: Cytotoxicity against human BT549 cells assessed as cell growth at 0.01 uM after 48 hrs by sulforhodamine B assay relative to control; conditions: BT-549, 48 h, read-out: Activity
A549 [5] = test: Cytotoxicity against human A549/ATCC cells assessed as cell growth at 0.01 uM after 48 hrs by sulforhodamine B assay relative to control; conditions: A549, 48 h, read-out: Activity
A549 [6] = test: Cytotoxicity against human A549/ATCC cells assessed as cell growth at 0.1 uM after 48 hrs by sulforhodamine B assay relative to control; conditions: A549, 48 h, read-out: Activity
SK-MEL-5 = test: Cytotoxicity against human SK-MEL-5 cells assessed as cell growth at 10 uM after 48 hrs by sulforhodamine B assay relative to control; conditions: SK-MEL-5, 48 h, read-out: Activity
T47D = test: Cytotoxicity against human T47D cells assessed as cell growth at 100 uM after 48 hrs by sulforhodamine B assay relative to control; conditions: read-out: Activity
M14 = test: Cytotoxicity against human M14 cells assessed as cell growth at 10 uM after 48 hrs by sulforhodamine B assay relative to control; conditions: M14, 48 h, read-out: Activity
HCC 2998 = test: Cytotoxicity against human HCC2998 cells assessed as cell growth at 0.01 uM after 48 hrs by sulforhodamine B assay relative to control; conditions: HCC 2998, 48 h, read-out: Activity
Hs-578T = test: Cytotoxicity against human Hs 578T cells assessed as growth inhibition after 48 hrs by sulforhodamine B assay
NCI-H522 = test: Cytotoxicity against human NCI-H522 cells assessed as cell growth at 1 uM after 48 hrs by sulforhodamine B assay relative to control; conditions: NCI-H522, 48 h, read-out: Activity
NCI-H460 = test: Cytotoxicity against human NCI-H460 cells assessed as cell growth at 10 uM after 48 hrs by sulforhodamine B assay relative to control; conditions: NCI-H460, 48 h, read-out: Activity
786-0 = test: Cytotoxicity against human 786-0 cells assessed as cell growth at 100 uM after 48 hrs by sulforhodamine B assay relative to control; conditions: 786-0, 48 h, read-out: Activity
HCT-15 = test: Cytotoxicity against human HCT15 cells assessed as cell growth at 0.01 uM after 48 hrs by sulforhodamine B assay relative to control; conditions: HCT-15, 48 h, read-out: Activity
SNB-19 = test: Cytotoxicity against human SNB19 cells assessed as cell growth at 10 uM after 48 hrs by sulforhodamine B assay relative to control; conditions: SNB-19, 48 h, read-out: Activity
IGROV-1 [7] = test: Cytotoxicity against human IGROV1 cells assessed as growth inhibition after 48 hrs by sulforhodamine B assay; conditions: IGROV-1, 48 h
UO-31 [8] = test: Cytotoxicity against human UO31 cells assessed as cell growth at 0.01 uM after 48 hrs by sulforhodamine B assay relative to control; conditions: UO-31, 48 h, read-out: Activity
HOP-62 [9] = test: Cytotoxicity against human HOP62 cells assessed as cell growth at 1 uM after 48 hrs by sulforhodamine B assay relative to control; conditions: HOP-62, 48 h, read-out: Activity
SR = test: Cytotoxicity against human SR cells assessed as growth inhibition after 48 hrs by sulforhodamine B assay; conditions: for CC50: read-out: LC50 (the source's name)
A498 = test: Cytotoxicity against human A498 cells assessed as cell growth at 0.1 uM after 48 hrs by sulforhodamine B assay relative to control; conditions: A498, 48 h, read-out: Activity
RPMI-8226 [10] = test: Cytotoxicity against human RPMI8226 cells assessed as cell growth at 10 uM after 48 hrs by sulforhodamine B assay relative to control; conditions: RPMI-8226, 48 h, read-out: Activity

## COc1cc(C(=O)/C=C/c2cc(-c3ccc4c(c3)OCO4)n[nH]2)cc(OC)c1OC
HCT-116
  GI50: 1.9 µM
  LC50: > 100 µM
  TGI: 4.63 µM
SF-539
  growth at 0.01 µM: 101%
NCI-H23
  growth at 1 µM: 92%
SK-OV-3
  growth at 0.01 µM: 98%
NCI-H226
  growth at 0.1 µM: 93%
HL-60(TB)
  growth at 0.1 µM: 98%
UO-31 [1]
  GI50: 1.34 µM
  LC50: 5.33 µM
  TGI: 2.67 µM
HOP-62 [2]
  growth at 10 µM: -24%
IGROV-1 [3]
  growth at 100 µM: -90%
RPMI-8226 [4]
  growth at 1 µM: 32%
SW-620
  GI50: 1.62 µM
  LC50 (lethal concentration, 50% net cell kill): 8.9 µM
  TGI: 3.8 µM
MOLT-4
  growth at 0.1 µM: 98%
Malme-3M
  growth at 10 µM: -41%
KM12
  growth at 0.1 µM: 93%
U-251
  growth at 0.1 µM: 96%
NCI-H322M
  growth at 0.01 µM: 101%
BT-549
  growth at 0.01 µM: 97%
A549 [5]
  growth at 0.01 µM: 100%
A549 [6]
  growth at 0.1 µM: 98%
SK-MEL-5
  growth at 10 µM: 14%
T47D
  growth at 100 µM: -87%
M14
  growth at 10 µM: -4%
HCC 2998
  growth at 0.01 µM: 99%
Hs-578T
  GI50: 3.14 µM
  LC50: > 100 µM
  TGI: 20.5 µM
NCI-H522
  growth at 1 µM: 80%
NCI-H460
  growth at 10 µM: -67%
786-0
  growth at 100 µM: -83%
HCT-15
  growth at 0.01 µM: 98%
SNB-19
  growth at 10 µM: 7%
IGROV-1 [7]
  GI50: 1.99 µM
  LC50: 23.4 µM
  TGI: 5.72 µM
UO-31 [8]
  growth at 0.01 µM: 85%
HOP-62 [9]
  growth at 1 µM: 93%
SR
  GI50: 1.2 µM
  TGI: 5.63 µM
  CC50: > 100 µM
A498
  growth at 0.1 µM: 90%
RPMI-8226 [10]
  growth at 10 µM: -48%

## COc1cc2c(cc1OC)C(=O)/C(=C/c1cc(-c3ccc4c(c3)OCO4)n[nH]1)C2
HCT-116
  GI50: 1.03 µM
  LC50: 6.31 µM
  TGI: 2.54 µM
SF-539
  growth at 0.01 µM: 100%
NCI-H23
  growth at 1 µM: 92%
SK-OV-3
  growth at 0.01 µM: 102%
NCI-H226
  growth at 0.1 µM: 83%
HL-60(TB)
  growth at 0.1 µM: 95%
UO-31 [1]
  GI50: 1.29 µM
  LC50: 5.51 µM
  TGI: 2.67 µM
HOP-62 [2]
  growth at 10 µM: -92%
IGROV-1 [3]
  growth at 100 µM: -82%
RPMI-8226 [4]
  growth at 1 µM: -24%
SW-620
  GI50: 1.35 µM
  LC50 (lethal concentration, 50% net cell kill): 8.96 µM
  TGI: 3.47 µM
MOLT-4
  growth at 0.1 µM: 99%
Malme-3M
  growth at 10 µM: -70%
KM12
  growth at 0.1 µM: 99%
U-251
  growth at 0.1 µM: 95%
NCI-H322M
  growth at 0.01 µM: 102%
BT-549
  growth at 0.01 µM: 96%
A549 [5]
  growth at 0.01 µM: 98%
A549 [6]
  growth at 0.1 µM: 99%
SK-MEL-5
  growth at 10 µM: -98%
T47D
  growth at 100 µM: -93%
M14
  growth at 10 µM: -87%
HCC 2998
  growth at 0.01 µM: 92%
Hs-578T
  GI50: 2.61 µM
  LC50: > 100 µM
  TGI: 8.08 µM
NCI-H522
  growth at 1 µM: -6%
NCI-H460
  growth at 10 µM: -59%
786-0
  growth at 100 µM: -93%
HCT-15
  growth at 0.01 µM: 95%
SNB-19
  growth at 10 µM: -95%
IGROV-1 [7]
  GI50: 1.89 µM
  LC50: 14.3 µM
  TGI: 4.58 µM
UO-31 [8]
  growth at 0.01 µM: 86%
HOP-62 [9]
  growth at 1 µM: 82%
SR
  GI50: 0.62 µM
  TGI: 4.11 µM
  CC50: > 100 µM
A498
  growth at 0.1 µM: 80%
RPMI-8226 [10]
  growth at 10 µM: -59%
